According to patent publication US20240377400A1, “METHODS FOR TREATING A SUBTYPE OF COLORECTAL CANCER” (Cornell University, priority 2021, published 2024):

Tested on: tumors from Prkci^fl/fl Prkcz^fl/fl Villin-cre (DKO) mice
Assay: scRNAseq and IHC of DKO mouse intestinal tumors treated with PVHA or Galunisertib
Assay type: in vivo
Description: FIG. 3A illustrates the experimental design: Prkci^fl/flPrkcz^fl/fl (DKO) mice were treated either with PVHA (0.0375 mg/Kg twice per week) or Galunisertib (10 mg twice daily) as described. Intestinal tumors were analyzed by scRNAseq.
To identify the mechanism of action of PVHA in the treatment of CMS4 tumors, scRNAseq was performed using 10× Genomics Chromium platform on tumors from Prkci^fl/fl Prkcz^fl/fl Villin-cre (DKO) mice (n=5) treated with PVHA for 14 weeks (n=3), as compared to those treated with Galunisertib (GAL) for 17 weeks (n=3), as shown in experimental design (FIG. 3A). Unsupervised clustering identified tumor and normal epithelial cells as well as stromal and immune cells with selective markers for each population (FIGS. 3B-3C). […] Among tumor clusters (0,4,6), a cell population with transcriptomic similarities to the recently identified “revival stem cells” (RSC; high Clu) in the vehicle treated tumors was identified (FIGS. 3F-3G).

`Cc1cccc(-c2nn3c(c2-c2ccnc4ccc(C(N)=O)cc24)CCC3)n1` [GAL, Galunisertib, reference compound] was tested, and the “Cd8 T cells, cell type proportion” value (scRNAseq T cells) was “increase”, the “fibroblast clusters associated with human CRC (Grem1/Sfrp1, Igf1/Cxcl14), CMS4 subtype (Sfrp2) and tumor initiation (Ptgs2/Spp1)” value (scRNAseq cell-type proportion) was “complete elimination” and the tumoral goblet population (scRNAseq goblet cells) was “reduction”. For the same molecule, the “T cells, cell-type proportion” value (scRNAseq immune cells) was “increase”, the “myeloid cells, cell-type proportion” value (scRNAseq immune cells) was “decrease” and the “TAN1 (anti-tumoral neutrophils)” value (scRNAseq myeloid cells) was “only increased”. For the same molecule, the “TAN2 (pro-tumoral neutrophils)” value (scRNAseq myeloid cells) was “without affecting”, the “percentage of stromal and immune cells” value (scRNAseq, PVHA 0.0375 mg/Kg twice per week, 14 weeks, Galunisertib 10 mg twice daily, 17 weeks) was “decreased” and the “number of stromal cells” value (scRNAseq, without apparent changes in cell-type proportions) was “reduced”.
